Assay results as given in patent US20020160968A1, “Inhibitors of cellular niacinamide mononucleotide formation and their use in cancer therapy” (Klinge Pharma GmbH, priority 1999, published 2002).

Tests used:
Format in all cases: cell-based, human
[1] = system: HepG2 cells; assay: Cell growth under high-density conditions (SRB assay), delayed cell death (DCD); details: Homo sapiens, high density HepG2 cultures
[2] = system: NAD(P) synthesis from niacinamide in HepG2 cells; assay: Determination of NAD(P) synthesis from [14C]niacinamide in HepG2 cells; details: for inhibition at 10 µM / activity at 10 µM: Homo sapiens; for inhibition at 10 µM: read-out: Cellular NAD synthesis inhibition [%]; for activity at 10 µM / NAD(P) pmol/10^6 cells / NAD(P) pmol/mg protein: Table 3a, compound 10^-5 M; for activity at 10 µM: read-out: NAD(P) % of Control; for NAD(P) pmol/10^6 cells: 17 hrs pre-incubation, control 302.1; for NAD(P) pmol/mg protein: control 186.4
Source text: The effect of the compounds on the synthesis of NAD(P) starting from niacinamide was investigated using for example the tumor cell line HepG2 according to the technique described in the experimental part below.
The inhibition of the NAD(P) synthesis from niacinamide by these compounds was investigated in HepG2 cells as described in the section “Material and Methods”. The compounds of Table 3 a were used at a concentration of 10^−5 M. The compounds of Table 3 b were used at concentrations of at least 10^−5 M, except for Doxorubicin where the concentration was 0.3×10^−5 M. As a control, vehicle treated or untreated cells were used.
In these experiments, a pre-incubation period of 17 hrs with the compounds was used, but it turned out that the pre-incubations period could be shortened, for example to 2 hrs, or skipped completely without affecting the inhibition profile. […] Similar results were obtained with the other specific compounds.
For the detection of specific inhibitors of niacinamide mononucleotide formation the following screening assay is especially useful which comprises the following steps: incubating cultured cells selected from HepG2 cells, U-87 MG cells, MCF-7 M1 cells, Caki-1 cells, HL-60 cells, PC3 cells, U-373 MG cells, A549 cells and KG-1a cells in the presence of [^14C]niacinamide and a compound to be tested for its activity to inhibit the cellular formation of niacinamide mononucleotide; effecting lysis of the cells; isolating and separating the [^14C]-labeled compounds and measuring the amount of formed labeled niacinamide mononucleotide, NAD and NADP. More concretely, cultured cells are seeded in a defined density in culture dishes, followed by incubation in the presence of a test compound and by the addition of [^14C]niacinamide for about 0.1 to 6 hrs. The cells are then lysed with perchloric acid and the resulting extract is neutralized. Finally, the [^14C]-labeled compounds are separated by thin-layer chromatography on cellulose matrices followed by UV detection and autoradiography. Non-radioactive niacinamide derivatives are used as standards. This assay allows simple and effective screening and selection of the compounds according to the invention.
Determination of NAD(P) Synthesis from [^14C]Niacinamide
The cells were detached from 75 cm^2 flasks by removing the growth medium and adding 3 ml trypsin/EDTA solution to each flask. After about 5 minutes incubation at 37° C., when the cells were detached from the surface of the dishes, trypsinization was stopped by adding 3 ml Richter's IMEM-ZO medium containing 10% FCS. The cells were suspended by repeated pipetting. For predilution, an aliquot of 20 μl was added to 10 ml Casyton isotonic solution (No. 043-90037P, Schärfe System, Reutlingen, Germany) using a Sysmex Auto Dilutor Type AD-260 (Toa, Medical Electronics Co. Ltd., Kobe, Japan). The cell number was determined by electronic cell volume measurements and counting with a CASY 1 Cell Counter+Analyzer System, Model TTC (Schärfe System, Reutlingen, Germany) equipped with a 60 μm capillary. Following dilution in IMEM-ZO containing 10% FCS, the cells were finally seeded at a density of 4×10^6/10 ml per sample in Ø 10 cm tissue culture dishes (Greiner, Frickenhausen, Germany) and incubated at 37° C. in a humidified atmosphere of 5% CO2 in air.
After one day, when the cells were adherent to the dishes, the cultures were replenished with IMEM-ZO containing 5% FCS plus the test compound or the vehicle. […] The cells were then incubated at 37° C. for 17 hours in a humidified atmosphere of 5% CO2 in air. This preincubation period is not necessary to achieve a distinct inhibitory action of the compounds and can be shortened for example to 2 or 0 hours. After this period of time, the medium was again discarded and 4 ml HEPES-buffered IMEM-ZO containing the test compound or the vehicle and 0.5 μCi/ml [^14C]niacinamide were added to each culture for an additional 5 hours at 37° C. and 100% humidity. […]

[3] = system: Hep G2 cells; assay: Nicotinamide Reversibility Assay / cell growth inhibition of Hep G2 cells (SRB, six days); details: for IC50: Homo sapiens, HepG2, 144 h, six days of compound incubation, SRB, read-out: Cell growth inhibition IC50-values [μM] Hep G2
Procedure: Nicotinamide Reversibility Assay
Hep G2 cells derived from a human liver carcinoma were plated at a density of 20,000 cells/ml in 12-well plastic dishes. Cultivation occurred in Richters IMEM-ZO nutrient medium with 5% fetal calf serum (FCS) in a tissue culture incubator with a gas mixture of 5% CO2 and 95% air at a temperature of 37° C. One day after plating, the culture medium was aspirated from the cells and replaced by fresh medium which contained the respective concentrations of the test compounds and where applicable of the nicotinamide. For the individual concentrations and the controls without test compounds, three-fold batches were done for each. Three days after the beginning of treatment, the medium was again renewed with the test compounds and where applicable the nicotinamide. After six days of compound incubation, the test was ended and the protein amount in the individual wells was determined with the sulforhodamin-B-method (according. to P. Skehan et al.: New Colorimetric Cytotoxicity Assay for Anticancer-Drug Screening. J. Natl. Cancer Inst. 82: 1107-1112, 1990). The IC50-values were taken from the dose-response curves and given as a comparative measurement for the activity of the test compounds.

[4] = minimum concentration which, despite initial growth, induced cell death below the number of initially seeded cells, Table 2

| Structure (SMILES) | minimal effective concentration ([1]; Table 5) [µM] | minimal effective concentration [1, 4] [µM] | inhibition at 10 µM [2] [%] | IC50 ([3]; Hep G2) [µM] | activity at 10 µM [2] [%] | NAD(P) pmol/10^6 cells [2] [pmol/10^6 cells] | NAD(P) pmol/mg protein [2] [pmol/mg protein] | Influence of the addition of nicotinamide on the action on cell growth (FIGS. 20 to 27) ([3]; Hep G2) | Reversal by Niacinamide ([3]; Hep G2 cell growth inhibition with added nicotinamide) |
| --- | --- | --- | --- | --- | --- | --- | --- | --- | --- |
| O=C(NCCCCC1CCN(S(=O)(=O)c2ccc3ccccc3c2)CC1)Nc1cccnc1 [Compound K22365, 1-{4-[1-(naphthalene-2-sulfonyl)-piperidine-4-yl)-butyl}-3-pyridine-3-yl-urea] | 3 | 3 | 92 | 0.6 | – | – | – | – | – |
| Cn1c(CCNC(=O)/C=C/c2cccnc2)ccc1CN1CCN(C(c2ccccc2)c2ccccc2)CC1 [Compound K22350, N-{2-[5-(4-benzhydryl-piperazine-1-yl-methyl)-1-methyl-1H-pyrrole-2-yl]-ethyl}-3-pyridine-3-yl-acrylamide] | 1 | 1 | 99 | 0.7 | 0.9 | 2.7 | 1.7 | – | – |
| NC(Cc1ccc(O)c(N=Nc2ccccc2C(=O)N2CCC(CCCCNC(=O)/C=C/c3cccnc3)CC2)c1)C(=O)O (stereo not drawn) [Compound K22408, 2-amino-3-[4-hydroxy-3-(2-{4-[4-(3-pyridine-3-yl-acryloyl-amino)-butyl]-piperidine-1-carbonyl}-phenylazo)-phenyl]-propanoic acid trihydrate] | 1 | 1 | 98 | 0.2 | 1.6 | 4.9 | 3.0 | – | – |
| O=C(NCCCCC1CCN(C(=O)N2c3ccccc3CCc3ccccc32)CC1)Nc1cccnc1 [Compound K22387, 1-{4-[1-(1,11-dihydro-dibenzene[b,f]azepine-5-carbonyl)-piperidine-4-yl]-butyl}-3-pyridine-3-yl-urea] | 0.01 | 0.01 | 99 | 0.002 | 0.9 | 2.6 | 1.6 | can be antagonized | yes |
